Source: PMC7758046, “Novel piperazine–chalcone hybrids and related pyrazoline analogues targeting VEGFR-2 kinase; design, synthesis, molecular docking studies, and anticancer evaluation” (Journal of Enzyme Inhibition and Medicinal Chemistry, 2020)

How the values were obtained:
[1] = system: SF-268 (CNS cancer); test: NCI-60 single-dose anticancer screen; format: cell-based, human; details: 10 µM single dose
Protocol: (§1) Six compounds were selected by the NCI, according to NCI’s DTP selection guidelines, for evaluation of their anticancer activity at a single-dose of 10 µM against 60 human tumours cell lines.
(§2) In vitro cytotoxicity was performed in NCI according to reported method.

[2] = system: CCRF-CEM (Leukaemia); test: NCI-60 single-dose anticancer screen; format: cell-based, human; details: 10 µM single dose; for inhibition at 10 µM: Homo sapiens, read-out: cell growth inhibition
Protocol: as §1, §2

[3] = system: U251 (CNS cancer); test: NCI-60 single-dose anticancer screen; format: cell-based, human; details: 10 µM single dose
Protocol: as §1, §2

[4] = system: SK-OV-3 (Ovarian cancer); test: NCI-60 single-dose anticancer screen; format: cell-based, human; details: 10 µM single dose
Protocol: as §1, §2

[5] = system: T-47D (Breast cancer); test: NCI-60 single-dose anticancer screen; format: cell-based, human; details: 10 µM single dose
Protocol: as §1, §2

[6] = system: SNB-19 (CNS cancer); test: NCI-60 single-dose anticancer screen; format: cell-based, human; details: 10 µM single dose
Protocol: as §1, §2

[7] = system: NCI-H226 (Non-small cell lung cancer); test: NCI-60 single-dose anticancer screen; format: cell-based, human; details: 10 µM single dose
Protocol: as §1, §2

[8] = system: ACHN (Renal cancer); test: NCI-60 single-dose anticancer screen; format: cell-based, human; details: 10 µM single dose
Protocol: as §1, §2

[9] = system: UACC-62 (Melanoma); test: NCI-60 single-dose anticancer screen; format: cell-based, human; details: 10 µM single dose
Protocol: as §1, §2

[10] = system: M14 (Melanoma); test: NCI-60 single-dose anticancer screen; format: cell-based, human; details: 10 µM single dose
Protocol: as §1, §2

[11] = system: HOP-92 (Non-small cell lung cancer); test: NCI-60 single-dose anticancer screen; format: cell-based, human; details: 10 µM single dose; for inhibition at 10 µM: Homo sapiens, read-out: cell growth inhibition
Protocol: as §1, §2

[12] = system: HS 578T (Breast cancer); test: NCI-60 single-dose anticancer screen; format: cell-based, human; details: 10 µM single dose
Protocol: as §1, §2

[13] = system: SNB-75 (CNS cancer); test: NCI-60 single-dose anticancer screen; format: cell-based, human; details: 10 µM single dose
Protocol: as §1, §2

[14] = system: EKVX (Non-small cell lung cancer); test: NCI-60 single-dose anticancer screen; format: cell-based, human; details: 10 µM single dose
Protocol: as §1, §2

[15] = system: IGROV1 (Ovarian cancer); test: NCI-60 single-dose anticancer screen; format: cell-based, human; details: 10 µM single dose
Protocol: as §1, §2

[16] = system: SN12C (Renal cancer); test: NCI-60 single-dose anticancer screen; format: cell-based, human; details: 10 µM single dose
Protocol: as §1, §2

[17] = system: COLO 205 (Colon cancer); test: NCI-60 single-dose anticancer screen; format: cell-based, human; details: 10 µM single dose
Protocol: as §1, §2

[18] = system: OVCAR-8 (Ovarian cancer); test: NCI-60 single-dose anticancer screen; format: cell-based, human; details: 10 µM single dose
Protocol: as §1, §2

[19] = system: OVCAR-3 (Ovarian cancer); test: NCI-60 single-dose anticancer screen; format: cell-based, human; details: 10 µM single dose
Protocol: as §1, §2

[20] = system: HL-60(TB) (Leukaemia); test: NCI-60 single-dose anticancer screen; format: cell-based, human; details: 10 µM single dose
Protocol: as §1, §2

[21] = system: OVCAR-4 (Ovarian cancer); test: NCI-60 single-dose anticancer screen; format: cell-based, human; details: 10 µM single dose
Protocol: as §1, §2

[22] = system: HCC-2998 (Colon cancer); test: NCI-60 single-dose anticancer screen; format: cell-based, human; details: 10 µM single dose
Protocol: as §1, §2

[23] = system: MDA-MB-231/ATCC (Breast cancer); test: NCI-60 single-dose anticancer screen; format: cell-based, human; details: 10 µM single dose
Protocol: as §1, §2

[24] = system: NCI-H460 (Non-small cell lung cancer); test: NCI-60 single-dose anticancer screen; format: cell-based, human; details: 10 µM single dose
Protocol: as §1, §2

[25] = system: HCT-116 (Colon cancer); test: NCI-60 single-dose anticancer screen; format: cell-based, human; details: for cell growth promotion: 10 µM single dose; for inhibition at 10 µM: Homo sapiens, read-out: cell growth inhibition
Protocol: as §1, §2

[26] = system: RPMI-8226 (Leukaemia); test: NCI-60 single-dose anticancer screen; format: cell-based, human; details: 10 µM single dose
Protocol: as §1, §2

[27] = system: CAKI-1 (Renal cancer); test: NCI-60 single-dose anticancer screen; format: cell-based, human; details: 10 µM single dose
Protocol: as §1, §2

[28] = system: UACC-257 (Melanoma); test: NCI-60 single-dose anticancer screen; format: cell-based, human; details: 10 µM single dose
Protocol: as §1, §2

[29] = system: HT29 (Colon cancer); test: NCI-60 single-dose anticancer screen; format: cell-based, human; details: for cell growth promotion: 10 µM single dose; for inhibition at 10 µM: Homo sapiens, HT-29, 10 µM single dose, read-out: cell growth inhibition
Protocol: as §1, §2

[30] = system: HCT-15 (Colon cancer); test: NCI-60 single-dose anticancer screen; format: cell-based, human; details: 10 µM single dose
Protocol: as §1, §2

[31] = system: MALME-3M (Melanoma); test: NCI-60 single-dose anticancer screen; format: cell-based, human; details: 10 µM single dose
Protocol: as §1, §2

[32] = system: OVCAR-5 (Ovarian cancer); test: NCI-60 single-dose anticancer screen; format: cell-based, human; details: 10 µM single dose
Protocol: as §1, §2

[33] = system: MOLT-4 (Leukaemia); test: NCI-60 single-dose anticancer screen; format: cell-based, human; details: 10 µM single dose
Protocol: as §1, §2

[34] = system: NCI-H322M (Non-small cell lung cancer); test: NCI-60 single-dose anticancer screen; format: cell-based, human; details: 10 µM single dose
Protocol: as §1, §2

[35] = system: PC-3 (Prostate cancer); test: NCI-60 single-dose anticancer screen; format: cell-based, human; details: 10 µM single dose
Protocol: as §1, §2

[36] = system: SK-MEL-28 (Melanoma); test: NCI-60 single-dose anticancer screen; format: cell-based, human; details: 10 µM single dose
Protocol: as §1, §2

[37] = system: UO-31 (Renal cancer); test: NCI-60 single-dose anticancer screen; format: cell-based, human; details: 10 µM single dose
Protocol: as §1, §2

[38] = system: MCF7 (Breast cancer); test: NCI-60 single-dose anticancer screen; format: cell-based, human; details: 10 µM single dose
Protocol: as §1, §2

[39] = system: DU-145 (Prostate cancer); test: NCI-60 single-dose anticancer screen; format: cell-based, human; details: 10 µM single dose
Protocol: as §1, §2

[40] = system: RXF 393 (Renal cancer); test: NCI-60 single-dose anticancer screen; format: cell-based, human; details: 10 µM single dose
Protocol: as §1, §2

[41] = target: T1, human VEGFR-2 (Homo sapiens, UniProt P35968); test: In vitro VEGFR-2 inhibitory assay (colorimetric human VEGFR-2 ELISA, HTScan VEGF Receptor 2 Kinase Assay Kit); format: biochemical; details: VEGFR-2 inhibition
T1 construct: It includes active VEGFR-2 kinase; purchased HTScan VEGF Receptor 2 Kinase Assay Kit
Protocol: VEGFR is considered as an important target for the development of potential anti-cancer candidates.
On a 96-well plate, a particular VEGFR-2 antibody was seeded and 100 µL of the normal solution or compound tested was applied, incubated at room temperature for 2.5 h and washed.
Then, 100 µL of the prepared biotin antibody was added, incubated for an additional 1 h at room temperature and washed. Following, 100 µL of streptavidin solution was added at room temperature, incubated for 45 min and then, 100 µL of TMB substrate solution was applied and incubated at room temperature for 30 min. Finally, 50 µL stop solution was added and the absorption was measured at 450 nm instantly. The standard curve, the X-axis concentrations, and the Y-axis absorbance were drawn.

[42] = Homo sapiens, read-out: cell growth inhibition

T1 sequence (P35968 20-1356): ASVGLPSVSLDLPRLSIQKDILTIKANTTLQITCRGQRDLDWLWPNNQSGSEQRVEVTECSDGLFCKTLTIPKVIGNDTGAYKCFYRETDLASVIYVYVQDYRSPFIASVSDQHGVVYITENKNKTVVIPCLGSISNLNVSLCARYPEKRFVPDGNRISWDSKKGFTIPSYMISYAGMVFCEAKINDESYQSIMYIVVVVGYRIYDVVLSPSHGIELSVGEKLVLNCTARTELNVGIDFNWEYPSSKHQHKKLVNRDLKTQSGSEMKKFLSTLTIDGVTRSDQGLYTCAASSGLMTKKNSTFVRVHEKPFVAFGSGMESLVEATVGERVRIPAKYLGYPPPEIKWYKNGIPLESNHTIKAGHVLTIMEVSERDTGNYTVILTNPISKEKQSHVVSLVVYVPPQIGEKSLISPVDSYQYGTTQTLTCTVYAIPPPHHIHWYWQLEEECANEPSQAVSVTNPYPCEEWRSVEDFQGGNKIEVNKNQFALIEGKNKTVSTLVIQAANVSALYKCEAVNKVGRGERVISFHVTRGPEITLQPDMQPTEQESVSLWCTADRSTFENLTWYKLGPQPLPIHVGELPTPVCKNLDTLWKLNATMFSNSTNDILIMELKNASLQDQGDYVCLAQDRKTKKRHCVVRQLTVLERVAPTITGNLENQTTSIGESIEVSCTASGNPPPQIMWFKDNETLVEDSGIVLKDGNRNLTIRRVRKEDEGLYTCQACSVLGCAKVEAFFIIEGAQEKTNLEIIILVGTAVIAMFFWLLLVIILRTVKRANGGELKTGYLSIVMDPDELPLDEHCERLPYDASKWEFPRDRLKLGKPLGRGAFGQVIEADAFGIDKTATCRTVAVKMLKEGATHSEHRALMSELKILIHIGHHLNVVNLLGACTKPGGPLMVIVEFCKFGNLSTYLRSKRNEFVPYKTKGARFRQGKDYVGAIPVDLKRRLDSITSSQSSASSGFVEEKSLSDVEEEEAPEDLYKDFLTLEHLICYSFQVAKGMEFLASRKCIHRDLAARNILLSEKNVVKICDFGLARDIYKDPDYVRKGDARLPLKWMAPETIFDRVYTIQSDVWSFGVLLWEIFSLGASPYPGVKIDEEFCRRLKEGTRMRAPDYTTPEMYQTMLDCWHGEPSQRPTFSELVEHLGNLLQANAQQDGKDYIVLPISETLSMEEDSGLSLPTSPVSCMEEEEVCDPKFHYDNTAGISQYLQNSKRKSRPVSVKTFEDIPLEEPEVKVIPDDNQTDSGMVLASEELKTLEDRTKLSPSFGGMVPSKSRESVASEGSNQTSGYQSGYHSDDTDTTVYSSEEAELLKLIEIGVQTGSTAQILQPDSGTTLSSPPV

With `O=C(C=Cc1ccncc1F)c1ccc(N2CCNCC2)cc1` [Vf, 3-(3-Fluoropyridin-4-yl)-1-(4-(piperazin-1-yl)phenyl)prop-2-en-1-one] the cell growth promotion [1] was 100.92%, the cell growth promotion [2] was 78.16% and the inhibition at 10 µM [2] was 21.8%. The cell growth promotion [3] was 95.03%, the cell growth promotion [4] was 96.68% and the cell growth promotion [5] was 118.12%. The cell growth promotion [6] was 96.07%, the cell growth promotion [7] was 99.71% and the cell growth promotion [8] was 113.06%. The cell growth promotion [9] was 92.01%, the cell growth promotion [10] was 95.53% and the cell growth promotion [11] was 82.34%. It also gave an inhibition at 10 µM [11] of 17.7%, a cell growth promotion [12] of 99.19% and a cell growth promotion [13] of 89.08%. It also gave a cell growth promotion [14] of 99.11%, a cell growth promotion [15] of 97.17% and a cell growth promotion [16] of 99.00%. The cell growth promotion [17] was 111.89%, the cell growth promotion [18] was 95.35% and the cell growth promotion [19] was 106.22%. The cell growth promotion [20] was 79.28%, the inhibition at 10 µM [20, 42] was 20.7% and the cell growth promotion [21] was 110.55%. It also gave a cell growth promotion [22] of 100.88%, a cell growth promotion [23] of 98.76% and a cell growth promotion [24] of 106.01%. It also gave a cell growth promotion [25] of 73.87%, an inhibition at 10 µM [25] of 26.1% and a cell growth promotion [26] of 97.33%. It also gave a cell growth promotion [27] of 86.18%, a cell growth promotion [28] of 70.86% and a cell growth promotion [29] of 86.42%. The inhibition at 10 µM [29] was 13.8%, the cell growth promotion [30] was 111.39% and the cell growth promotion [31] was 99.98%. It also gave a cell growth promotion [32] of 111.84%, a cell growth promotion [33] of 91.63% and a cell growth promotion [34] of 96.26%. For the same molecule, the cell growth promotion [35] was 73.56%, the cell growth promotion [36] was 115.56% and the cell growth promotion [37] was 89.78%. The cell growth promotion [38] was 99.38%, the inhibition at 10 µM [38, 42] was 0.62% and the cell growth promotion [39] was 108.14%. For the same molecule, the cell growth promotion [40] was 97.78% and the IC50 [41] was 1330 nM.

Molecule `N#Cc1ccccc1C1CC(c2ccc(N3CCNCC3)cc2)=NN1` (centres unmarked) [VIa, 2-(3-(4-(Piperazin-1-yl)phenyl)-4,5-dihydro-1H-pyrazol-5-yl)benzonitrile] has a cell growth promotion [1] of 100.24%, a cell growth promotion [2] of 71.21% and an inhibition at 10 µM [2] of 28.8%. It also gave a cell growth promotion [3] of 94.54%, a cell growth promotion [4] of 96.47% and a cell growth promotion [5] of 89.99%. The cell growth promotion [6] was 95.34%, the cell growth promotion [7] was 93.10% and the cell growth promotion [8] was 104.24%. It also gave a cell growth promotion [9] of 88.47%, a cell growth promotion [10] of 104.47% and a cell growth promotion [11] of 83.18%. It also gave an inhibition at 10 µM [11] of 16.8%, a cell growth promotion [12] of 91.67% and a cell growth promotion [13] of 90.58%. For the same molecule, the cell growth promotion [14] was 101.50%, the cell growth promotion [15] was 93.22% and the cell growth promotion [16] was 98.09%. The cell growth promotion [17] was 113.04%, the cell growth promotion [18] was 90.36% and the cell growth promotion [19] was 101.64%. It also gave a cell growth promotion [20] of 81.63%, a cell growth promotion [21] of 101.39% and a cell growth promotion [22] of 96.75%. It also gave a cell growth promotion [23] of 95.96%, a cell growth promotion [24] of 101.50% and a cell growth promotion [25] of 85.83%. The inhibition at 10 µM [25] was 14.2%, the cell growth promotion [26] was 88.98% and the cell growth promotion [27] was 83.12%. It also gave a cell growth promotion [28] of 85.21%, a cell growth promotion [29] of 87.83% and an inhibition at 10 µM [29] of 12.2%. It also gave a cell growth promotion [30] of 112.02%, a cell growth promotion [31] of 106.87% and a cell growth promotion [32] of 113.63%. For the same molecule, the cell growth promotion [33] was 96.02%, the cell growth promotion [34] was 98.35% and the cell growth promotion [35] was 83.35%. The cell growth promotion [36] was 114.17%, the cell growth promotion [37] was 86.28% and the cell growth promotion [38] was 93.05%. The cell growth promotion [39] was 104.00%, the cell growth promotion [40] was 108.30% and the IC50 [41] was 1480 nM.
